From article PMC10303900, “Discovery of a New Chalcone-Trimethoxycinnamide Hybrid with Antimitotic Effect: Design, Synthesis, and Structure—Activity Relationship Studies” (Pharmaceuticals, 2023) come the findings set out here.

Test [1] relates to HCT116 cells. The test can be described thus: Mitotic arrest / mitotic index by phase-contrast microscopy. The class given is cell-based, human. The following applies: HCT116, 24 h. On the procedure: Disruption of cell cycle progression is considered one of the most common cytotoxic mechanisms of anticancer drugs. Moreover, the antimitotic effect of BP-M345 (2) has been previously reported. Therefore, compounds 6, 7, and 13 were tested for their capability to induce cell cycle arrest. HCT116 cells were exposed for 24 h to the compounds and then analyzed using phase contrast microscopy for morphological changes. Untreated and dimethyl sulfoxide (DMSO; solvent)-treated cells were used as negative controls. Cell exposure to nocodazole, an antimitotic agent, was used as a positive control. […] We thus calculated the mitotic index (MI), and observed a significant increase in MI in 7-treated cells (22.76 ± 4.30%) compared to the untreated (12.68 ± 1.98%) or DMSO-treated (12.81 ± 1.45%) (Figure 4c).
A total of 1.2 × 10^5 HCT-116 cells were grown in six-well dishes and treated for 24 h with 3.26 µM of compound 7. Cells treated with 1 µM nocodazole were used as a positive control for antimitotic activity. Untreated cells and cells treated with DMSO were included to exclude the cytotoxicity of the compound solvent. Mitotic index, and the percentage of mitotic cells over the total cell population were determined via cell-rounding under phase-contrast microscopy from at least ten random microscope fields.
For phase contrast microscopy images, a Nikon TE 2000-U microscope (Nikon, Amsterdam, The Netherlands) with a 10× objective was used, coupled to a DXM1200F digital camera with Nikon ACT-1 software (Melville, NY, USA). For fluorescence images, an Axio Observer Z.1 SD microscope (Carl Zeiss, Germany) was used, coupled to an AxioCam MR3, with the Plan Apochromatic 63×/NA 1.4 objective. The images were processed using ImageJ, version 1.51.

Test [2] deals with HCT116 (HCT116 p53+/+). The test can be described thus: SRB growth inhibition assay, colorectal carcinoma cells. The class given is cell-based. The following applies: Homo sapiens, HCT-116. On the procedure:
(§1) A sulforhodamine B (SRB) assay was performed to evaluate the in vitro growth inhibitory activity of all synthesized hybrids, as well as intermediates in the human tumor cell lines of melanoma (A375-C5), breast adenocarcinoma (MCF-7), and colorectal carcinoma (HCT116), as well as on the non-tumor Human Pulmonary Alveolar Epithelial cell line (HPAEpiC). The concentration inducing 50% cell growth inhibition (GI50), was calculated. […] The overall results prompt us to further investigate the mechanism behind the cytotoxic activities of compounds 6, 7, and 13 in colorectal tumor cells. Moreover, in silico studies were performed, aiming to screen for drug-likeness.
(§2) A375-C5 (melanoma) and MCF-7 (breast adenocarcinoma) cell lines were obtained from the European Collection of Cell Culture, UK, and were grown in RPMI-1640 medium (Roswell Park Memorial Institute, Biochrom, Cambridge, UK) with 5% inactivated FBS (fetal bovine serum, Biochrom). HCT-116 (colon adenocarcinoma) cells were grown in DMEM medium (Dulbecco’s Modified Eagle’s, Biochrom) with 5% inactivated FBS. The non-tumor human pulmonary alveolar epithelial cells (HPAEpiC) were obtained from ScienCell Research Laboratories and grown in DMEM medium supplemented with 10% FBS and 1% non-essential amino acids (Sigma-Aldrich Co., Saint Louis, MO, USA). All cell lines were maintained in a humidified incubator (Hera Cell, Heraeus, Hanau, Germany) at 37 °C and with 5% CO2, and cell viability was regularly monitored using the exclusion trypan blue dye.
(§3) A total of 5.0 × 10^4 A375-C5, MCF-7, and HCT-116 cells, or 6.0 × 10^4 HPAEpiC cells were seeded in 96-well plates and incubated at 37 °C and 5% CO2 to allow for cell attachment. After 24 h, cells were treated with two-fold serial dilutions of test compounds (0–150 µM), or with DMSO as the compound solvent. In parallel, cells in a time-zero (T0) plate, without treatment, were fixed with 50% (m/v) trichloroacetic acid (TCA, Merck Millipore, Darmstadt, Germany), for 1 h at 4 °C, and then washed with distilled water and left to dry. Forty-eight hours after compound treatment, cells were fixed with 50% TCA and stained with SRB (Sigma-Aldrich Co., Ltd., Gillingham, UK) for 30 min at room temperature, followed by 5 rounds of washing with 1% (v/v) acetic acid (Merck Milli-pore, Darmstadt, Germany). SRB–protein complexes were then solubilized with […] Tris buffer (Sigma-Aldrich Co., Ltd., Gillingham, UK) for 30 min, and the absorbance was measured at 515 nm in a microplate reader (Biotek Synergy 2, BioTek Instruments, Inc., Winooski, VT, USA). A dose-response curve was obtained for each cell line, and the concentration that caused 50% cell growth inhibition (GI50) was calculated.

For test [3], the system named is HCT116 p53−/−. Nature of the test: SRB growth inhibition assay, p53 knocked-out colorectal cells. The class given is cell-based, human. On the procedure:
as §3

In test [4] the test system is MCF-7. The test can be described thus: SRB growth inhibition assay, breast adenocarcinoma cells. The settings on record: Homo sapiens, MCF7, 48 h. The class given is cell-based. The protocol: as §1, §2, §3

Read-outs that look alike come from different tables or passages of the source. A value given as a limit tells only on which side of the number the result lay.

As to `CCCc1c(OCCNC(=O)/C=C/c2cc(OC)c(OC)c(OC)c2)ccc(C(=O)/C=C/c2cc(OC)c(OC)c(OC)c2)c1O` [Compound 7, (E)-N-(2-(3-hydroxy-2-propyl-4-((E)-3-(3,4,5-trimethoxyphenyl)acryloyl)phenoxy)ethyl)-3-(3,4,5-trimethoxyphenyl)acrylamide], in test [1] (at GI50 (3.26 µM), untreated 12.68 ± 1.98%), the “Mitotic index (MI)” value was 22.76 ± 4.30%. Also, the “Accumulation of bright and rounded (mitotic) cells” value in test [1] (phase contrast microscopy) was “accumulation of bright and rounded cells”. Besides, the GI50 is 3.26 ± 1.39 µM in test [2] (SRB, 48 h, read-out: GI50 HCT116); 3.26 ± 1.39 µM in test [2] (Table 2, 48 h, read-out: GI50 HCT116 p53+/+); 1.3 ± 0.09 µM in test [3] (Homo sapiens, HCT-116, Table 2, 48 h); > 75 µM in test [4]. The “SI, selective index (GI50 of HCT116 p53−/−/GI50 of HCT116 p53+/+)” value in test [3] is reported as 0.40.
